Source: paper PMC3250100 (The Journal of General Physiology, 2012)

Target: Cx50 (Mus musculus, UniProt P28236)
Format: biochemical

Sequence of Cx50 (P28236 2-440): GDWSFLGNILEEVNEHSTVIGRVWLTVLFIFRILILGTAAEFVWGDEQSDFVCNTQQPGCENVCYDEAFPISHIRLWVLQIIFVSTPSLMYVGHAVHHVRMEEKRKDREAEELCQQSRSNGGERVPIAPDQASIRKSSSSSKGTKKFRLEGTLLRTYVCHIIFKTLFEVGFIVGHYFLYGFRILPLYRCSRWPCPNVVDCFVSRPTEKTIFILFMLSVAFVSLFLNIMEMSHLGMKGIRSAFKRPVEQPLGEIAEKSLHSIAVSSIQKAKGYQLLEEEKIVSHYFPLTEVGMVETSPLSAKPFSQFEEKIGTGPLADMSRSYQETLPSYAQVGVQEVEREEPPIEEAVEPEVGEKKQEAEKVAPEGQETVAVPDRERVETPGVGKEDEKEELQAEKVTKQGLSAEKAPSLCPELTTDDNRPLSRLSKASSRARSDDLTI

## C=C[C@H]1C[N+]2(Cc3ccccc3)CC[C@H]1C[C@H]2[C@H](O)c1ccnc2ccc(OC)cc12 [BQ+, N-benzylquininium]
  IC50: 340 µM
